Data reported in ChEMBL document CHEMBL1159101, “Structural diversity of nucleoside phosphonic acids as a key factor in the discovery of potent inhibitors of rat T-cell lymphoma thymidine phosphorylase” (Bioorg Med Chem Lett, 2010).

Assays:
Thymidine phosphorylase = molecular target: T1, Thymidine phosphorylase (Rattus norvegicus, UniProt Q5FVR2); assay: Inhibition of thymidine phosphorylase in T cell lymphomas of Sprague-Dawley rat in presence of 100 uM thymidine and 200 uM phosphate; format: cell-based
T1 sequence (Q5FVR2 whole entry): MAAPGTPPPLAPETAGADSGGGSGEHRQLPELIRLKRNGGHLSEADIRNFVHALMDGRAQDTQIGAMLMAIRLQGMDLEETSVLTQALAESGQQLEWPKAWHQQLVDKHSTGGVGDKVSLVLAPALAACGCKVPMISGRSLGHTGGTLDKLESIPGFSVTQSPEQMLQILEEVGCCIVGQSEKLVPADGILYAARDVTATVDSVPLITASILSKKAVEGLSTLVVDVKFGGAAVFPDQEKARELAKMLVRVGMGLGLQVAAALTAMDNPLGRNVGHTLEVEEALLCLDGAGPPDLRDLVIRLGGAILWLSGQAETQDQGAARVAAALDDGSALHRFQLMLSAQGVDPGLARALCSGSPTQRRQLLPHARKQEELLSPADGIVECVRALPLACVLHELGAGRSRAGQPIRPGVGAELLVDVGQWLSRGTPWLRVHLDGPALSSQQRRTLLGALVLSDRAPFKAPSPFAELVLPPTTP

[1] = molecular target: T2, Thymidine phosphorylase (Rattus norvegicus) (UniProt Q5FVR2); assay: Inhibition of thymidine phosphorylase in T cell lymphomas of Sprague-Dawley rat assessed as residual activity at 10 uM in presence of 100 uM thymidine and 200 uM phosphate
T2 sequence (whole entry): T1 sequence (Q5FVR2 whole entry)

Row | SMILES | IC50 (Thymidine phosphorylase) [µM] | Activity [1] [%]
1 | Cc1cn(CC(OCP(=O)(O)O)Oc2ccccc2)c(=O)[nH]c1=O (stereo not given) | 0.75 | 1
2 | Cc1cn([C@H]2C[C@H]3O[C@](CBr)(P(=O)(O)O)OC[C@H]3O2)c(=O)[nH]c1=O |  | 20
3 | Cc1cn(CCOC2(P(=O)(O)O)CCCC2)c(=O)[nH]c1=O |  | 14
4 | Cc1cn([C@H]2C[C@H]3O[C@](c4ccccc4)(P(=O)(O)O)OC[C@H]3O2)c(=O)[nH]c1=O |  | 4
5 | Cc1cn([C@H]2C[C@H]3O[C@@](c4ccccc4)(P(=O)(O)O)OC[C@H]3O2)c(=O)[nH]c1=O |  | 47
6 | C=CCOC(Cn1cc(C)c(=O)[nH]c1=O)OCP(=O)(O)O (stereo not given) | 0.3 | 10
7 | Cc1cn(CCOC(c2ccccc2)P(=O)(O)O)c(=O)[nH]c1=O (stereo not given) |  | 9
8 | Cc1cn(CCOC2(P(=O)(O)O)CCCCC2)c(=O)[nH]c1=O |  | 21
9 | Cc1cn([C@@H]2CN(C(=O)P(=O)(O)O)C[C@@H]2O)c(=O)[nH]c1=O | 0.011 | 0
10 | Cc1cn([C@H]2C[C@H]3O[C@@](CBr)(P(=O)(O)O)OC[C@H]3O2)c(=O)[nH]c1=O |  | 26
11 | Cc1cn([C@@H]2CN(C(=S)P(=O)(O)O)C[C@@H]2O)c(=O)[nH]c1=O | 0.015 | 0
12 | O=c1ccn([C@H]2C[C@@H](CO)N(CP(=O)(O)O)C2)c(=O)[nH]1 |  | 17
13 | Cc1cn([C@@H]2CN(C(=O)P(=O)(O)O)C[C@H]2O)c(=O)[nH]c1=O | 0.22 | 4

Results, then the compound that gave them:

Row | IC50 (Thymidine phosphorylase) [µM] | Activity [1] [%] | SMILES
14 | 0.045 | 2 | Cc1cn([C@H]2C[C@H](CO)N(C(=O)P(=O)(O)O)C2)c(=O)[nH]c1=O
15 | 0.35 | 3 | Cc1cn(C2CCN(C(=O)P(=O)(O)O)C2)c(=O)[nH]c1=O (racemic)
16 | 0.19 | 9 | Cc1cn(C2CCN(C(=S)P(=O)(O)O)C2)c(=O)[nH]c1=O (racemic)
17 |  | 29 | Cc1cn(C2CCN(CP(=O)(O)O)C2)c(=O)[nH]c1=O (racemic)
18 | 0.25 | 0 | Cc1cn([C@H]2C[C@H](CO)N(CP(=O)(O)O)C2)c(=O)[nH]c1=O
19 | 0.045 | 1 | Cc1cn([C@@H]2CN(CP(=O)(O)O)C[C@@H]2O)c(=O)[nH]c1=O
20 |  | 59 | Cc1cn(C2CCN(C(=O)CP(=O)(O)O)C2)c(=O)[nH]c1=O (racemic)
